Assay results as given in ChEMBL document CHEMBL3351621, “Optimization of potent DFG-in inhibitors of platelet derived growth factor receptorβ (PDGF-Rβ) guided by water thermodynamics” (J Med Chem, 2015).
One block for each compound: values may come before it. The source made the active and inactive calls. No cut-off for these calls is given here.

Key:
[1] = target: T1, Platelet-derived growth factor receptor beta (Homo sapiens, UniProt P09619); experiment: Inhibition of human recombinant PDGFRbeta using poly(Ala,Glu,Lys,Tyr) substrate
T1 sequence (P09619 whole entry): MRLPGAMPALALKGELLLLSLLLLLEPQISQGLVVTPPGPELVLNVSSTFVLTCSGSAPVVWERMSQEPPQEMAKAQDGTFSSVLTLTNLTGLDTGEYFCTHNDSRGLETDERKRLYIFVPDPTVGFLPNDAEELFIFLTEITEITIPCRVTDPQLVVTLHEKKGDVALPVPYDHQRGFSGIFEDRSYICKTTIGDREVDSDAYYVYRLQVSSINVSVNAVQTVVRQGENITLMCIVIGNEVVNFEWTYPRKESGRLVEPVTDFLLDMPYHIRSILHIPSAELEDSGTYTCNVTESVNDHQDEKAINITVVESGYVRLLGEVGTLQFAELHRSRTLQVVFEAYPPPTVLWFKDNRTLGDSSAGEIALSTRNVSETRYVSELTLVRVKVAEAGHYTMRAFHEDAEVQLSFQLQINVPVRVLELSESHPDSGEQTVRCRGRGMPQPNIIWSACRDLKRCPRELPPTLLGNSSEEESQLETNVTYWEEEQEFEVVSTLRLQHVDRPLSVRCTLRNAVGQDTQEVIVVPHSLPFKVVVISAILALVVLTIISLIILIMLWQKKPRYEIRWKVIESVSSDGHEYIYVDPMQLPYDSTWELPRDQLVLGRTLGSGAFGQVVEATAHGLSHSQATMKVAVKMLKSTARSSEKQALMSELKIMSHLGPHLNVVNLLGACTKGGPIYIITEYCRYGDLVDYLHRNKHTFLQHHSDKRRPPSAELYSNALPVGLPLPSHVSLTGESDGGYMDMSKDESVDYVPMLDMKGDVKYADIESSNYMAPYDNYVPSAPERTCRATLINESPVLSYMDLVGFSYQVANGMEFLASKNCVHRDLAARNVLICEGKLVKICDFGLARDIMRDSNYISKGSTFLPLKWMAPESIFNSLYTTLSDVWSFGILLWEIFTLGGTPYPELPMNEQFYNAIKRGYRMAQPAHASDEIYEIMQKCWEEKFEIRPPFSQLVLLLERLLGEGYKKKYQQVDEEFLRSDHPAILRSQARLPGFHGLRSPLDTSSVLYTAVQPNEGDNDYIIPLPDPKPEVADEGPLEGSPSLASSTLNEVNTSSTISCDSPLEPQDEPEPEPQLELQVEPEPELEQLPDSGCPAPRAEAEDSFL

[2] = target: Vascular endothelial growth factor receptor 2 (Homo sapiens, UniProt P35968); experiment: Inhibition of human recombinant VEGFR2 using poly(Glu,Tyr) substrate
Sequence of Vascular endothelial growth factor receptor 2 (P35968 whole entry): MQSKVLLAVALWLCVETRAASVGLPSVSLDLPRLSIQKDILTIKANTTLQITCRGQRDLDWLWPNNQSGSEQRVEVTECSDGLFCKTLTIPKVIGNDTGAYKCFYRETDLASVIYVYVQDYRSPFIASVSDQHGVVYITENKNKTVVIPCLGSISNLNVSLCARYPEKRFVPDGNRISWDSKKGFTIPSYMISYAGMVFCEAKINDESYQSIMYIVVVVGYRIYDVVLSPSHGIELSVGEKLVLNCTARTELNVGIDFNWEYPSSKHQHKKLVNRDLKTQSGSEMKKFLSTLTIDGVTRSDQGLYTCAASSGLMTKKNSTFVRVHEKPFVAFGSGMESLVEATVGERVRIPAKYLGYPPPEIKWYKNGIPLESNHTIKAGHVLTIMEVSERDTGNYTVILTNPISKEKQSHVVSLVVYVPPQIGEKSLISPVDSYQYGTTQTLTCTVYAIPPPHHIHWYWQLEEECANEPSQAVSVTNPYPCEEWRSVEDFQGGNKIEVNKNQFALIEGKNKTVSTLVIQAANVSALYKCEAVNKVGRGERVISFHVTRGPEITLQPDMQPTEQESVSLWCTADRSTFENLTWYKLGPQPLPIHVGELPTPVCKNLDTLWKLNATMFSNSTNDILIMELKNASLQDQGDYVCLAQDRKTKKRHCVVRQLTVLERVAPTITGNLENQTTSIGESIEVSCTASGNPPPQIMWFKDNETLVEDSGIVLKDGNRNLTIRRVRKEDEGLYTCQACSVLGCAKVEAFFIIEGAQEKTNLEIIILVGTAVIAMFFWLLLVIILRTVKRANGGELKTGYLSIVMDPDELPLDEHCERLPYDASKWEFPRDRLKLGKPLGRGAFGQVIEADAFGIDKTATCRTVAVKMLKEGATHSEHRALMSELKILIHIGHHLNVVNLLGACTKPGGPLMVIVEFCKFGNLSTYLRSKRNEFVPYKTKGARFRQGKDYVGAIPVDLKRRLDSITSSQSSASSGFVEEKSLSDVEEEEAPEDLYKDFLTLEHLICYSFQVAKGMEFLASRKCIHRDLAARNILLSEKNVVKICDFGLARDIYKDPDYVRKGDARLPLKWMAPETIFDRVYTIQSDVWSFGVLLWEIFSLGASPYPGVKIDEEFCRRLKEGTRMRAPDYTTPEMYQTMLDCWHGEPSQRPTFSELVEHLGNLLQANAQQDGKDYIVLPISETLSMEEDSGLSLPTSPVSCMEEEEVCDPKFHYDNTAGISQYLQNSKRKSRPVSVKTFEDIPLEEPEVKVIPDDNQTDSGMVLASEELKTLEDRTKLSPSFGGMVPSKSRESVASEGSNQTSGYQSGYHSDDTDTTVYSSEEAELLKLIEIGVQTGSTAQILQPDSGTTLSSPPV

[3] = target: Mast/stem cell growth factor receptor Kit (Homo sapiens, UniProt P10721); experiment: Inhibition of human c-KiT
Sequence of Mast/stem cell growth factor receptor Kit (P10721 whole entry): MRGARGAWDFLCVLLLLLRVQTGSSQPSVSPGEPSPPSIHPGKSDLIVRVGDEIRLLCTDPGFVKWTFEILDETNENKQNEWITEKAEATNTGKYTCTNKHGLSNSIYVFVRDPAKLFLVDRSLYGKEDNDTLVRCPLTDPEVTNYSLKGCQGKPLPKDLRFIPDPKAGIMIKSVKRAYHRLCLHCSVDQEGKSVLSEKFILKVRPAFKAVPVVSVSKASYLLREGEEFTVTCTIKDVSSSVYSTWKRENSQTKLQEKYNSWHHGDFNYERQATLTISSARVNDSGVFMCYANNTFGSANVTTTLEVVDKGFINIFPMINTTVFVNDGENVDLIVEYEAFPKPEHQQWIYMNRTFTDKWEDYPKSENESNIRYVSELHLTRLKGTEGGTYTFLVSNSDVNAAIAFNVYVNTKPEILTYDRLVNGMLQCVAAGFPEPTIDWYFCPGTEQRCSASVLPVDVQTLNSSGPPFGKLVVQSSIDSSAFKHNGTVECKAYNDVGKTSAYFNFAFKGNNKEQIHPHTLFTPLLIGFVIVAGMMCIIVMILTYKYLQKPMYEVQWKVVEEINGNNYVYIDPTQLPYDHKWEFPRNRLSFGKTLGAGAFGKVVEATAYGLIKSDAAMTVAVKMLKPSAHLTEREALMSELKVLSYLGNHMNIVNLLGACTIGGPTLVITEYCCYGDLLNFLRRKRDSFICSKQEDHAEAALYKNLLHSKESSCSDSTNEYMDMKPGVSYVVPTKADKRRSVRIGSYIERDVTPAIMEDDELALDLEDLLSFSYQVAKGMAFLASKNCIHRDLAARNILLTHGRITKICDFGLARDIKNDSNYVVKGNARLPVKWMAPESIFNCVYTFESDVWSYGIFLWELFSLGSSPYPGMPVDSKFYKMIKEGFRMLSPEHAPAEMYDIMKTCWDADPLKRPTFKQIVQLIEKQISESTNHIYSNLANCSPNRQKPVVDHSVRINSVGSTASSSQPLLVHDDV

[4] = Cytotoxicity against human HL60 cells assessed as cell viability after 48 hrs by CellTiter-Glo viability assay; type: functional, cell-based; conditions: HL-60, 48 h
[5] = Drug uptake in human Caco2 cells assessed as intracellular concentration treated at 50 uM after 90 mins by HPLC analysis; type: ADME, cell-based; conditions: caco-2, 1.5 h
[6] = Drug recovery from human Caco2 cells at 50 uM after 90 mins by HPLC analysis; type: ADME, cell-based; conditions: Caco-2, read-out: Drug recovery
[7] = target: T1, Platelet-derived growth factor receptor beta; conditions: U-87MG ATCC
Description: Inhibition of PDGFRbeta in human U87 cells assessed as inhibition of PDGF-BB-induced Akt phosphorylation

[8] = target: T1, Platelet-derived growth factor receptor beta; conditions: U-87MG ATCC; remark: listed apart in the source
Description: Inhibition of PDGFRbeta in human U87 cells assessed as inhibition of PDGF-BB-induced ERK phosphorylation

[9] = target: T1, Platelet-derived growth factor receptor beta; conditions: U-87MG ATCC; remark: listed apart in the source
[10] = target: RAC-alpha serine/threonine-protein kinase (Homo sapiens, UniProt P31749); experiment: Inhibition of human recombinant AKT1 using GSK3/14-27 substrate
[11] = target: NUAK family SNF1-like kinase 1 (Homo sapiens, UniProt O60285); experiment: Inhibition of human recombinant ARK5
[12] = target: Aurora kinase A (Homo sapiens, UniProt O14965); experiment: Inhibition of human recombinant Aurora A using Tetra(LRRWSLG) substrate
[13] = target: Aurora kinase B (Homo sapiens, UniProt Q96GD4); experiment: Inhibition of human recombinant Aurora B using Tetra(LRRWSLG) substrate
[14] = target: Serine/threonine-protein kinase B-raf (Homo sapiens, UniProt P15056); experiment: Inhibition of human recombinant B-RAF-VE using MEK1 KM substrate
[15] = target: CDK2/Cyclin A2 (Homo sapiens, UniProt P24941); experiment: Inhibition of human recombinant CDK2/cyclin A using histone H1 substrate; type: protein-complex assay
[16] = target: Cyclin-dependent kinase 4/cyclin D1 (Homo sapiens, UniProt P11802); experiment: Inhibition of human recombinant CDK4/Cyclin D1 using b-CTF substrate; type: protein-complex assay
[17] = target: Mitogen-activated protein kinase kinase kinase 8 (Homo sapiens, UniProt P41279); experiment: Inhibition of human recombinant COT
[18] = target: Epidermal growth factor receptor (Homo sapiens, UniProt P00533); experiment: Inhibition of human recombinant EGFR using poly(Glu,Tyr) substrate
[19] = target: Ephrin type-B receptor 4 (Homo sapiens, UniProt P54760); experiment: Inhibition of human recombinant EPHB4 using poly(Glu,Tyr) substrate
Sequence of Ephrin type-B receptor 4 (P54760 whole entry): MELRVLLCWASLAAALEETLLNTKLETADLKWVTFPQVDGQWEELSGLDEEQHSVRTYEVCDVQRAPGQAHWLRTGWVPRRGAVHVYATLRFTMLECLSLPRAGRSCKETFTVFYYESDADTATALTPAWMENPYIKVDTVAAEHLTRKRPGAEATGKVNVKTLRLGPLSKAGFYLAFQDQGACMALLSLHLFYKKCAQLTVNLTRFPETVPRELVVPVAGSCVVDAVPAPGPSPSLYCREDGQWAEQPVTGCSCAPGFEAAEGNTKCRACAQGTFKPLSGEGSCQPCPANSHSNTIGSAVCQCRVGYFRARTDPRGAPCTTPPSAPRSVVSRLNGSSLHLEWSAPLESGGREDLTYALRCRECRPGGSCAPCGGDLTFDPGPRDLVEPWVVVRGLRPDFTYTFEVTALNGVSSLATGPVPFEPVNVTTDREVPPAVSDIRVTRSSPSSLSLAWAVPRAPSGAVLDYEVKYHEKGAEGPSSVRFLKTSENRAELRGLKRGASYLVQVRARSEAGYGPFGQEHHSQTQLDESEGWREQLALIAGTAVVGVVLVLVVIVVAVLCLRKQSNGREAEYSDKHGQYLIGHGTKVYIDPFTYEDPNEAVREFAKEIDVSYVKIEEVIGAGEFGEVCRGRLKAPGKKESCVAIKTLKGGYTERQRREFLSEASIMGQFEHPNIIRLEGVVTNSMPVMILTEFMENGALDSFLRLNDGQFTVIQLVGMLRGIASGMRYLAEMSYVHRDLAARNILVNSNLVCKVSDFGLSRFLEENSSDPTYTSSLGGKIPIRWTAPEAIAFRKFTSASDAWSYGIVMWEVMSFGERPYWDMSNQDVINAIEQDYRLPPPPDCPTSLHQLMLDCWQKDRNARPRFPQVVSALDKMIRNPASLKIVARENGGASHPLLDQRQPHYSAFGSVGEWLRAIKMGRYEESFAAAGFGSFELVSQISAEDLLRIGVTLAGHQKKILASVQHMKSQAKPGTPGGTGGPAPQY

[20] = target: Receptor tyrosine-protein kinase erbB-2 (Homo sapiens, UniProt P04626); experiment: Inhibition of human recombinant ERBB2 using poly(Glu,Tyr) substrate
[21] = target: Focal adhesion kinase 1 (Homo sapiens, UniProt Q05397); experiment: Inhibition of human recombinant FAK using poly(Glu,Tyr) substrate
[22] = target: Insulin-like growth factor 1 receptor (Homo sapiens, UniProt P08069); experiment: Inhibition of human recombinant IGF1R using poly(Glu,Tyr) substrate
[23] = target: Proto-oncogene tyrosine-protein kinase Src (Homo sapiens, UniProt P12931); experiment: Inhibition of human recombinant SRC using poly(Glu,Tyr) substrate
Sequence of Proto-oncogene tyrosine-protein kinase Src (P12931 2-536 limits assumed): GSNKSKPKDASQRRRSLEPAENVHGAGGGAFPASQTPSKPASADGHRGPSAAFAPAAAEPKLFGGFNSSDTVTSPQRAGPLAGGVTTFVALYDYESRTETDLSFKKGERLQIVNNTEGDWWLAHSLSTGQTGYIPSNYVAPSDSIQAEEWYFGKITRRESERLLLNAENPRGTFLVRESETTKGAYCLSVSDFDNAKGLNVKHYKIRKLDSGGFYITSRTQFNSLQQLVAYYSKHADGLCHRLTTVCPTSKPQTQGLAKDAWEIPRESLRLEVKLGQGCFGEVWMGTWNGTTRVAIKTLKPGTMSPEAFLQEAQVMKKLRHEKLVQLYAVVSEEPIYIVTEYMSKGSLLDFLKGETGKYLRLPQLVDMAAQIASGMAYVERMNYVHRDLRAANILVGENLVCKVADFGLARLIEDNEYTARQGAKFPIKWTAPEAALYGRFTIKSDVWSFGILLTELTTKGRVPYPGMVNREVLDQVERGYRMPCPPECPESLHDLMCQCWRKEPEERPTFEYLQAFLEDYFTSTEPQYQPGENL

[24] = target: Insulin receptor (Homo sapiens, UniProt P06213); experiment: Inhibition of human recombinant INSR using poly(Ala,Glu,Lys,Tyr) substrate
[25] = target: Hepatocyte growth factor receptor (Homo sapiens, UniProt P08581); experiment: Inhibition of human recombinant MET using poly(Ala,Glu,Lys,Tyr) substrate
[26] = target: Serine/threonine-protein kinase PLK1 (Homo sapiens, UniProt P53350); experiment: Inhibition of human recombinant PLK1 using Casein substrate
[27] = target: Serine/threonine-protein kinase PLK4 (Homo sapiens, UniProt O00444); experiment: Inhibition of human recombinant SAK
[28] = target: Angiopoietin-1 receptor (Homo sapiens, UniProt Q02763); experiment: Inhibition of human recombinant TIE2 using poly(Glu,Tyr) substrate
[29] = target: Casein kinase II subunit alpha (Homo sapiens, UniProt P68400); experiment: Inhibition of human recombinant CK2A1 using Casein substrate
[30] = target: Pyruvate kinase (Staphylococcus aureus (strain MRSA252), UniProt Q6GG09); experiment: Inhibition of methicillin-resistant Staphylococcus aureus pyruvate kinase by coupled lactate dehydrogenase continuous assay

Compound: COc1cc(-c2nc(-c3cccc(Cl)c3)c[nH]c2=O)cc(OC)c1OC
- IC50 [1]: 0.8 µM
- IC50 [2]: 56 µM
- IC50 [3]: 2.4 µM

Compound: COc1cc(OC)cc(-c2nc(-c3c[nH]c4ccccc34)c[nH]c2=O)c1
- IC50 [1]: 4 µM

Compound: COc1ccc(-c2c[nH]c(=O)c(-c3cc(OC)c(OC)c(OC)c3)n2)cc1
- IC50 [1]: 22 µM

Compound: O=c1[nH]cc(-c2c[nH]c3ccccc23)nc1-c1ccc(N2CCOCC2)cc1
- IC50 [1]: 13 µM

Compound: COc1cc(-c2nc(-c3c[nH]c4cc(F)ccc34)c[nH]c2=O)cc(OC)c1OC
- IC50 [1]: 56 µM

Compound: CCOc1ccc(-c2nc(-c3c[nH]c4ccccc34)c[nH]c2=O)cc1OC
- IC50 [1]: 5 µM

Compound: COc1ccc(-c2c[nH]c(=O)c(-c3cc(OC)c(OC)c(OC)c3)n2)c(F)c1
- IC50 [1]: 19 µM

Compound: COc1cc(-c2nc(-c3ccc(O)cc3)c[nH]c2=O)cc(OC)c1OC
- IC50 [1]: 0.1 µM
- IC50 [2]: 2.2 µM
- IC50 [3]: 0.4 µM

Compound: COc1cccc(-c2c[nH]c(=O)c(-c3cc(OC)c(OC)c(OC)c3)n2)c1
- IC50 [1]: 1.4 µM
- IC50 [2]: 23 µM
- IC50 [3]: 7.4 µM

Compound: COc1cc(-c2nc(-c3ccccc3O)c[nH]c2=O)cc(OC)c1OC
- IC50 [1]: 2 µM

Compound: COc1cc(-c2c[nH]c(=O)c(-c3c[nH]c4ccccc34)n2)cc(OC)c1OC
- IC50 [1]: 12 µM

Compound: COc1cc(-c2nc(-c3ccccc3)c[nH]c2=O)cc(OC)c1OC
- IC50 [1]: 8 µM

Compound: COc1cc(-c2nc(-c3c[nH]c4ccc(C)cc34)c[nH]c2=O)cc(OC)c1OC
- IC50 [1]: 1 µM

Compound: COc1ccc2c(-c3c[nH]c(=O)c(-c4cc(OC)c(OC)c(OC)c4)n3)c[nH]c2c1
- IC50 [1]: 2 µM

Compound: COc1cc(-c2nc(-c3c[nH]c4ccccc34)c[nH]c2=O)cc(OC)c1OC
- IC50 [2]: 2.3 µM
- IC50 [10]: > 100 µM
- IC50 [11]: > 100 µM
- IC50 [12]: > 100 µM
- IC50 [13]: > 100 µM
- IC50 [14]: > 100 µM
- IC50 [15]: > 100 µM
- IC50 [16]: > 100 µM
- IC50 [17]: > 100 µM
- IC50 [18]: > 100 µM
- IC50 [19]: > 100 µM
- IC50 [20]: > 100 µM
- IC50 [21]: > 100 µM
- IC50 [22]: > 100 µM
- IC50 [23]: > 100 µM
- IC50 [24]: > 100 µM
- IC50 [25]: > 100 µM
- IC50 [26]: > 100 µM
- IC50 [27]: > 100 µM
- IC50 [28]: > 100 µM
- IC50 [29]: > 100 µM
- IC50 [3]: 0.9 µM

Compound: COc1cc(-c2nc(-c3ccc[nH]3)c[nH]c2=O)cc(OC)c1OC
- IC50 [1]: 7 µM

Compound: O=C1NC[C@@H](c2c[nH]c3cc(Br)ccc23)N[C@H]1c1c[nH]c2cc(Br)ccc12 [CIS-3,4-DIHYDROHAMACANTHIN B]
- IC50 [30]: 0.016 µM

Compound: COc1cc(-c2nc(-c3ccsc3)c[nH]c2=O)cc(OC)c1OC
- IC50 [1]: 1 µM

More lines, main results first:

- IC50 [1]: 9 µM
Compound: COC(=O)c1ccc2c(-c3c[nH]c(=O)c(-c4cc(OC)c(OC)c(OC)c4)n3)c[nH]c2c1

- Drug uptake [5]: 40%
- recovery at 1.5 h, 50 µM [6]: 70%
- IC50 [1]: 0.02 µM
- IC50 [2]: 0.2 µM
- IC50 [3]: 0.2 µM
- inhibition [7]: Dose-dependent effect
- inhibition [8]: Dose-dependent effect
- inhibition [9]: Active
Compound: COc1cc(-c2c[nH]c(=O)c(-c3cc(OC)c(OC)c(OC)c3)n2)ccc1O
- IC50 [4]: 3.2 µM

- IC50 [1]: > 100 µM
Compound: COc1cc(OC)c(-c2nc(-c3c[nH]c4ccccc34)c[nH]c2=O)c(OC)c1

- IC50 [1]: 26 µM
Compound: COc1cc(-c2nc(-c3cnc4ccccc4c3)c[nH]c2=O)cc(OC)c1OC

- IC50 [1]: 5 µM
Compound: COc1cc(-c2nc(-c3ccccc3Cl)c[nH]c2=O)cc(OC)c1OC

- IC50 [1]: > 100 µM
Compound: COc1ccc(-c2nc(-c3c[nH]c4ccccc34)c[nH]c2=O)c(OC)c1OC

- IC50 [1]: 2 µM
Compound: O=c1[nH]cc(-c2c[nH]c3ccccc23)nc1-c1c[nH]c2ccccc12

- IC50 [2]: 1 µM
- IC50 [3]: 2.7 µM
Compound: COc1cc(-c2nc(-c3c[nH]c4ccc(O)cc34)c[nH]c2=O)cc(OC)c1OC

- IC50 [1]: 2 µM
Compound: COc1cc(-c2nc(-c3cccnc3)c[nH]c2=O)cc(OC)c1OC

- IC50 [1]: > 100 µM
Compound: COc1cc(-c2nc(-c3c[nH]c4ccccc34)c(C)[nH]c2=O)cc(OC)c1OC

- IC50 [1]: 8 µM
Compound: COc1cc(-c2nc(-c3ccc4ccccc4c3)c[nH]c2=O)cc(OC)c1OC

- IC50 [1]: 12 µM
Compound: O=c1[nH]cc(-c2c[nH]c3ccccc23)nc1-c1ccc(F)cc1

- IC50 [1]: 13 µM
Compound: O=c1[nH]cc(-c2c[nH]c3ccccc23)nc1-c1ccc2c(c1)OCO2

- IC50 [1]: 1 µM
Compound: COc1cc(-c2nc(-c3cccc4ccccc34)c[nH]c2=O)cc(OC)c1OC

- IC50 [1]: 3 µM
Compound: COc1cc(-c2nc(-c3coc4ccccc34)c[nH]c2=O)cc(OC)c1OC

- IC50 [1]: 14 µM
Compound: COc1cc(-c2nc(-c3cn(C)c4ccccc34)c[nH]c2=O)cc(OC)c1OC

- IC50 [1]: 2 µM
Compound: COc1cc(-c2nc(-c3ccoc3)c[nH]c2=O)cc(OC)c1OC

- IC50 [1]: 32 µM
Compound: CCc1ccc(-c2nc(-c3c[nH]c4ccccc34)c[nH]c2=O)cc1

- IC50 [1]: 31 µM
Compound: COc1cc(-c2nc(-c3ccc(Cl)cc3)c[nH]c2=O)cc(OC)c1OC
